# Key:
# Format in all cases: physicochemical
# [1] = Stability of compound in TRIS buffer at pH 8 assessed as compound conversion in presence of DTT measured for 2 to 90 mins by LC-MS analysis; conditions: time 2-90 min
# [2] = Stability of compound in TRIS buffer at pH 8 assessed as compound conversion in presence of DTT measured after 15 mins by LC-MS analysis; conditions: TRIS buffer with DTT, read-out: Drug metabolism
# [3] = Stability of compound in TRIS buffer at pH 8 assessed as compound conversion in presence of DTT measured after 90 mins by LC-MS analysis; conditions: TRIS buffer with DTT, read-out: Drug metabolism
Stability [1],degraded at 0.25 h [2],degraded at 1.5 h [3],SMILES
Unstable,60%,100%,Nc1ncnc2c1ncn2[C@@H]1O[C@H](CN(CC[C@H](N)C(=O)O)S(=O)(=O)c2ccc(Br)c([N+](=O)[O-])c2)[C@@H](O)[C@H]1O
Unstable,,,Nc1ncnc2c1ncn2[C@@H]1O[C@H](CN(CC[C@H](N)C(=O)O)S(=O)(=O)c2ccc(F)c([N+](=O)[O-])c2)[C@@H](O)[C@H]1O
Unstable,60%,100%,Nc1ncnc2c1ncn2[C@@H]1O[C@H](CN(CC[C@H](N)C(=O)O)S(=O)(=O)c2ccc(Cl)c([N+](=O)[O-])c2)[C@@H](O)[C@H]1O

# Reference: ChEMBL document CHEMBL5247681, “Covalent S-Adenosylhomocysteine-Based DNA Methyltransferase 2 Inhibitors with a New Type of Aryl Warhead” (ACS Med Chem Lett, 2023)
